# Experimental data published in patent publication US20230330095A1, “PHARMACEUTICAL COMPOSITION FOR ANTI-CANCER COMPRISING NUPR1 ISOFORM A INHIBITOR” (SEOUL NATIONAL UNIVERSITY R&DB FOUNDATION, priority 2022, published 2023).
# Key:
# [1] = target: NUPR1 isoform A (Homo sapiens, UniProt O60356); test: calorimetric titration of 3dc and NUPR1 isoform A; details: read-out: binding affinity between the NUPR1 isoform A and 3dc
# Experimental: Additionally, calorimetric titrations of 3dc and the NUPR1 isoform A were determined.
# [2] = tested on: NUPR1 isoform A; test: NUPR1 isoform A mRNA expression level in GBM-28 and GBM-37; type: cell-based, human; details: GBM-28 and GBM-37 cell lines, treated versus untreated
# Experimental: (§1) In order to confirm the anticancer efficacy of NUPR1 isoform A inhibitors in brain tumors, experiments were performed using brain tumor patient-derived cell lines obtained from primary glioblastoma patients (GBM-28) and secondary gliosarcoma patients (GBM-37).
# [3] = tested on: NUPR1 isoform A; test: immunochemical analysis of nuclear transfer of NUPR1 isoform A; type: cell-based, human; details: GBM-37, immunochemical analysis
# Experimental: as §1
# First, through immunochemical analysis, it was confirmed that when GBM-37 was treated with 3dc, nuclear transfer of the NUPR1 isoform A was inhibited, as shown in FIG. 6.
# [4] = tested on: GBM-37; test: cholecystokinin (CCK) measurement after treatment; type: cell-based, human; details: GBM-37 compared with GBM-28
# Experimental: as §1
# In addition, after treating GBM-28 and GBM-37 with temozolomide and 3dc, respectively, cholecystokinin (CCK) results were measured.
# [5] = tested on: GBM-37; test: wound healing assay; type: cell-based, human; details: GBM-37 compared with GBM-28
# Experimental: as §1
# [6] = tested on: GBM-37; test: invasion and proliferation assay; type: cell-based, human; details: GBM-37 compared with GBM-28
# Experimental: as §1
# [7] = tested on: GBM-28; test: cell viability with increasing 3dc concentration; type: cell-based, human; details: as treatment concentration of 3dc increased
# Experimental: as §1
# [8] = tested on: GBM-37; test: cell viability with increasing 3dc concentration; type: cell-based, human; details: as treatment concentration of 3dc increased
# Experimental: as §1
# [9] = tested on: GBM-28; test: cell proliferation analysis (MTS assay); type: cell-based, human
# Experimental: as §1
# (§2) In addition, after treating GBM-28 and GBM-37 with 3dc, cell proliferation analysis (MTS assay) was performed. As a result of treating GBM-28 and GBM-37 with 3dc, respectively, it was confirmed that cell proliferation was inhibited compared to the untreated control group, and compared to the control group overexpressing (OE) NUPR1 isoform A in GBM-28, in the case of i) treating 3dc, ii) transfecting the NUPR1 isoform A with siRNAs of SEQ ID NOs: 5 and 6 (siNUPR1a), and iii) transfecting 3dc-treated NUPR1 isoform A with siRNAs of SEQ ID NOs: 5 and 6, the cell proliferation was all inhibited. In addition, compared to the untreated control GBM-37, in the case of i) transfecting the NUPR1 isoform A with siRNAs of SEQ ID NOs: 5 and 6 and ii) transfecting 3dc-trated NUPR1 isoform A with siRNAs of SEQ ID NOs: 5 and 6, the cell proliferation was all inhibited, confirming that 3dc inhibited the proliferation ability of brain tumor cells expressing the NUPR1 isoform A (FIG. 11).
# [10] = tested on: GBM-37; test: cell proliferation analysis (MTS assay); type: cell-based, human; details: compared to untreated control
# Experimental: as §1, §2
# [11] = tested on: GBM-37; test: cDNA microarray transcriptome analysis; type: cell-based, human
# Experimental: In addition, GBM-37 was treated with 100 nM of 3dc, and transcriptome changes were confirmed through cDNA microarray analysis.
# [12] = tested on: DU145; test: cell viability, prostate cancer cells; type: cell-based; details: as treatment concentration of 3dc increased
# Excerpt: (§3) For prostate cancer cells, DU145 and PC3, as the treatment concentration of 3dc, a NUPR1 isoform A inhibitor, increased, cell viability decreased, confirming the anticancer efficacy of 3dc (FIG. 21).
# [13] = tested on: PC3; test: cell viability, prostate cancer cells; type: cell-based; details: as treatment concentration of 3dc increased
# Excerpt: as §3
# [14] = tested on: HCT116; test: cell viability, colon cancer cells; type: cell-based; details: as treatment concentration of 3dc increased
# Excerpt: (§4) For colon cancer cells, HT29 and HCT116, as the treatment concentration of 3dc, a NUPR1 isoform A inhibitor, increased, cell viability decreased, confirming the anticancer efficacy of 3dc (FIG. 22).
# [15] = tested on: HT29; test: cell viability, colon cancer cells; type: cell-based; details: as treatment concentration of 3dc increased
# Excerpt: as §4
# [16] = tested on: SNU790; test: cell viability, thyroid cancer cells; type: cell-based; details: as treatment concentration of 3dc increased
# Excerpt: (§5) For thyroid cancer cells, SNU80 and SNU790, as the treatment concentration of 3dc, a NUPR1 isoform A inhibitor, increased, cell viability decreased, confirming the anticancer efficacy of 3dc (FIG. 25).
# [17] = tested on: SNU80; test: cell viability, thyroid cancer cells; type: cell-based; details: as treatment concentration of 3dc increased
# Excerpt: as §5
# [18] = tested on: A549; test: cell viability, lung cancer cells; type: cell-based; details: as treatment concentration of 3dc increased
# Excerpt: (§6) For lung cancer cells, A549 and NCI-H1299, as the treatment concentration of 3dc, a NUPR1 isoform A inhibitor, increased, cell viability decreased, confirming the anticancer efficacy of 3dc (FIG. 26).
# [19] = tested on: NCI-H1299; test: cell viability, lung cancer cells; type: cell-based; details: as treatment concentration of 3dc increased
# Excerpt: as §6
# [20] = tested on: A375P; test: cell viability, skin cancer cells; type: cell-based; details: as treatment concentration of 3dc increased
# Excerpt: (§7) For skin cancer cells, A375P and SK-MEL1, as the treatment concentration of 3dc, a NUPR1 isoform A inhibitor, increased, cell viability decreased, confirming the anticancer efficacy of 3dc (FIG. 29).
# [21] = tested on: SK-MEL1; test: cell viability, skin cancer cells; type: cell-based; details: as treatment concentration of 3dc increased
# Excerpt: as §7
# [22] = tested on: Caov3; test: cell viability, ovary cancer cells; type: cell-based; details: as treatment concentration of 3dc increased
# Excerpt: (§8) For ovary cancer cells, Caov3 and SKOV3, as the treatment concentration of 3dc, a NUPR1 isoform A inhibitor, increased, cell viability decreased, confirming the anticancer efficacy of 3dc (FIG. 30).
# [23] = tested on: SKOV3; test: cell viability, ovary cancer cells; type: cell-based; details: as treatment concentration of 3dc increased
# Excerpt: as §8
# [24] = tested on: Hep3B; test: cell viability, liver cancer cells; type: cell-based; details: as treatment concentration of 3dc increased
# Excerpt: (§9) For liver cancer cells, HepG2 and Hep3B, as the treatment concentration of 3dc, a NUPR1 isoform A inhibitor, increased, cell viability decreased, confirming the anticancer efficacy of 3dc (FIG. 31).
# [25] = tested on: HepG2; test: cell viability, liver cancer cells; type: cell-based; details: as treatment concentration of 3dc increased
# Excerpt: as §9
# [26] = tested on: BT-20; test: cell viability, breast cancer cells; type: cell-based; details: as treatment concentration of 3dc increased
# Excerpt: (§10) For breast cancer cells, BT-20 and MCF7, as the treatment concentration of 3dc, a NUPR1 isoform A inhibitor, increased, cell viability decreased, confirming the anticancer efficacy of 3dc (FIGS. 32, 33, and 34).
# [27] = tested on: MCF7; test: cell viability, breast cancer cells; type: cell-based; details: as treatment concentration of 3dc increased
# Excerpt: as §10
# [28] = tested on: KATOIII; test: cell viability, gastric cancer cells; type: cell-based; details: as treatment concentration of 3dc increased
# Excerpt: (§11) For gastric cancer cells, KATOIII and NCl-N87, as the treatment concentration of 3dc, a NUPR1 isoform A inhibitor, increased, cell viability decreased, confirming the anticancer efficacy of 3dc (FIG. 35).
# [29] = tested on: NCl-N87; test: cell viability, gastric cancer cells; type: cell-based; details: as treatment concentration of 3dc increased
# Excerpt: as §11
# [30] = tested on: HCT116; test: mouse model intravitreally injected with colon cancer cells, tumor size; type: in vivo; details: HCT116 in Balb/c nude mice, 1 mM 3dc, visually observed after 1, 2, 3 and 4 weeks
# Experimental: (§12) In addition, colon cancer cells, HT29 and HCT116 was intravitreal injected into 6-week-old male Balb/c nude mice at 3×10^5 cells/2 μl according to a method disclosed in Lee et al. Experimental & Molecular Medicine (2019) 51:43, and then the tumor size of 1 mM 3dc treatment group (experimental group) and the untreated group (control group) was visually observed after 1 week, 2 weeks, 3 weeks and 4 weeks.
# [31] = tested on: HT29; test: as above; type: in vivo; details: HT29 in Balb/c nude mice, 1 mM 3dc, visually observed after 1, 2, 3 and 4 weeks
# Experimental: as §12
# [32] = tested on: A549; test: mouse model intravitreally injected with lung cancer cells, tumor size; type: in vivo; details: A549 in Balb/c nude mice, 1 mM 3dc, visually observed after 1, 2, 3 and 4 weeks
# Experimental: as §12, with “lung” for “colon”, “A549” for “HT29”, “NCI-H1299” for “HCT116”
# [33] = tested on: NCI-H1299; test: as above; type: in vivo; details: NCI-H1299 in Balb/c nude mice, 1 mM 3dc, visually observed after 1, 2, 3 and 4 weeks
# Experimental: as §12, with “lung” for “colon”, “A549” for “HT29”, “NCI-H1299” for “HCT116”
# [34] = tested on: GBM-37; test: cell viability after 3dc pre-treatment and temozolomide (anticancer adjuvant); type: cell-based, human
# Experimental: To confirm whether 3dc, a NUPR1 isoform A inhibitor, may be applied as an anticancer adjuvant, brain tumor cell GBM-37 was treated with temozolomide (TMZ) and 3dc, and cell viability was confirmed.
# GBM-37 was pre-treated with 50 nM, 100 nM, and 200 nM of 3dc for 24 hours, and then was treated with 250 μM, 500 μM, 1000 μM, 2000 μM, and 4000 μM of temozolomide, respectively, and cell viability was confirmed.
# [35] = GBM-28 overexpressing (OE) NUPR1 isoform A, MTS assay, compared to OE control group
# [36] = GBM-37, gene ontology and network analysis
# Sequence of NUPR1 isoform A (Homo sapiens, UniProt O60356) (O60356 1-100 isoform O60356-2): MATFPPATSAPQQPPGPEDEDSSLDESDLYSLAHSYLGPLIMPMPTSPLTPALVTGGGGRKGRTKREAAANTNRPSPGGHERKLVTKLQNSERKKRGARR
molecule,measurement,setting,value
"FC(F)(F)c1ccc2c(c1)N(CCCCN1CCC(N3CCCC3)CC1)c1ccccc1S2 [3dc, 10-(4-(4-(pyrrolidin-1-yl)piperidin-1-yl)butyl)-2-(trifluoromethyl)-10H-phenothiazine]",Kd,[1],89 µM
same,mRNA expression level of NUPR1 isoform A,[2],significantly decreased
same,nuclear transfer of the NUPR1 isoform A,[3],inhibited
same,cholecystokinin (CCK) results,[4],better effect
same,inhibitory effect on cell migration,[5],better inhibitory effect
same,invasion inhibitory effect,[6],better
same,proliferation inhibitory effect,[6],better
same,cell viability,[7],decreased
same,cell viability,[8],decreased
same,cell proliferation,"[9]; GBM-28, MTS assay, compared to untreated control group",inhibited
same,cell proliferation,"[9]; GBM-28 overexpressing (OE) NUPR1 isoform A, 3dc treatment combined with siNUPR1a transfection, compared to OE control group",inhibited
same,cell proliferation,[9]; [35],inhibited
same,cell proliferation,"[10]; GBM-37, 3dc treatment combined with siNUPR1a transfection",inhibited
same,cell proliferation,"[10]; GBM-37, MTS assay",inhibited
same,"genes related to essential cell phenomena such as DNA repair, cell migration, and cell cycle","[11]; GBM-37, 100 nM 3dc, cDNA microarray",down-regulated
same,genomic aberrations of coding genes: most chromosomal genes,"[11]; GBM-37, based on the transcriptome analysis",affected or down-regulated
same,basic biological processes such as DNA packaging and protein-DNA complex assembly,[11]; [36],significantly inhibited
same,basic cellular components such as DNA packaging complexes and nucleosomes,[11]; [36],destroyed
same,basic molecular functions such as nucleic acid binding and RNA binding,[11]; [36],significantly inhibited
same,cell viability,[12],decreased
same,cell viability,[13],decreased
same,cell viability,[14],decreased
same,cell viability,[15],decreased
same,cell viability,[16],decreased
same,cell viability,[17],decreased
same,cell viability,[18],decreased
same,cell viability,[19],decreased
same,cell viability,[20],decreased
same,cell viability,[21],decreased
same,cell viability,[22],decreased
same,cell viability,[23],decreased
same,cell viability,[24],decreased
same,cell viability,[25],decreased
same,cell viability,[26],decreased
same,cell viability,[27],decreased
same,cell viability,[28],decreased
same,cell viability,[29],decreased
same,tumor size compared with control group,[30],smaller and more transparent
same,tumor size compared with control group,[31],smaller and more transparent
same,tumor size compared with control group,[32],smaller and more transparent
same,tumor size compared with control group,[33],smaller and more transparent
same,cell viability compared to the untreated control group,"[34]; GBM-37, 2000 μM temozolomide, 3dc at 50 nM, 100 nM and 200 nM",significantly reduced
same,cell viability compared to the untreated control group,"[34]; GBM-37 pre-treated 24 hours with 50, 100, 200 nM 3dc, then 250-4000 μM temozolomide",significantly reduced
"siNUPR1a: siRNAs of SEQ ID NOs: 5 and 6 directed against NUPR1 isoform A (chain 1 GCCUAUGCCCACUUCACCUUU; chain 2 AGGUGAAGUGGGCAUAGGCUU; listed as RNA, chemistry not given here)",cell proliferation,[9]; [35],inhibited
same,cell proliferation,"[10]; GBM-37, MTS assay",inhibited
